What all share (format): cell-based
Experiment [1] addresses T1, recombinant rat GluN1/GluN2C (Rattus norvegicus, UniProt P35439+Q00961).
T1 construct: expressed in transfected cells; host or cells: Xenopus laevis oocytes (Ecocyte) injected with in vitro transcribed cRNA
The experiment can be described thus: Two-electrode voltage-clamp (TEVC) recordings in Xenopus laevis oocytes, GluN1/GluN2C. On the procedure:
(§1) Data are from between 3-26 oocytes from 2-5 frogs for each compound and receptor tested.
(§2) Two-electrode voltage-clamp recordings were performed in Xenopus laevis oocytes (Ecocyte) expressing recombinant rat GluN1/GluN2A, GluN1/GluN2B, GluN1/GluN2C, GluN1/GluN2D. cRNA was transcribed in vitro (Ambion), diluted with nuclease free water, and injected at a ratio of 1:2 GluN1:GluN2 (5-10 ng total cRNA). The oocytes were kept in Barth's solution comprised of (in mM) 88 NaCl, 5 Tris-HCl, 2.4 NaHCO3, 1 KCl, 0.84 MgSO4, 0.41 CaCl2, and 0.33 Ca(NO3)2 at pH 7.4 at 15-17° C. for two to five days before experiments. Oocytes were placed into a perfusion chamber and continually washed with recording solution containing (in mM) 90 NaCl, 1.0 KCl, 0.5 BaCl2, 0.005 EDTA, and 10 HEPES at pH 7.4 (23° C.). Voltage clamp recordings were conducted at a holding potential of −40 mV. All compounds were made as 20 mM stock solutions in DMSO and dissolved to reach the final concentration in recording solution. Final DMSO content was 0.05-0.5% (vol/vol). Some oocytes expressing GluN1/GluN2A were pretreated with […] BAPTA-AM for 10 minutes or injected with […] of 2 mM K-BAPTA to prevent gradual run-up of the current response.
In general terms: In two-electrode clamp one electrode senses voltage and the other passes current.

The target of experiment [2] is T2, recombinant rat GluN1/GluN2D (Rattus norvegicus, UniProt P35439+Q62645).
T2 construct: expressed in transfected cells; host or cells: Xenopus laevis oocytes (Ecocyte) injected with in vitro transcribed cRNA
T2 sequence (Q62645 28-1323, other chains not shown): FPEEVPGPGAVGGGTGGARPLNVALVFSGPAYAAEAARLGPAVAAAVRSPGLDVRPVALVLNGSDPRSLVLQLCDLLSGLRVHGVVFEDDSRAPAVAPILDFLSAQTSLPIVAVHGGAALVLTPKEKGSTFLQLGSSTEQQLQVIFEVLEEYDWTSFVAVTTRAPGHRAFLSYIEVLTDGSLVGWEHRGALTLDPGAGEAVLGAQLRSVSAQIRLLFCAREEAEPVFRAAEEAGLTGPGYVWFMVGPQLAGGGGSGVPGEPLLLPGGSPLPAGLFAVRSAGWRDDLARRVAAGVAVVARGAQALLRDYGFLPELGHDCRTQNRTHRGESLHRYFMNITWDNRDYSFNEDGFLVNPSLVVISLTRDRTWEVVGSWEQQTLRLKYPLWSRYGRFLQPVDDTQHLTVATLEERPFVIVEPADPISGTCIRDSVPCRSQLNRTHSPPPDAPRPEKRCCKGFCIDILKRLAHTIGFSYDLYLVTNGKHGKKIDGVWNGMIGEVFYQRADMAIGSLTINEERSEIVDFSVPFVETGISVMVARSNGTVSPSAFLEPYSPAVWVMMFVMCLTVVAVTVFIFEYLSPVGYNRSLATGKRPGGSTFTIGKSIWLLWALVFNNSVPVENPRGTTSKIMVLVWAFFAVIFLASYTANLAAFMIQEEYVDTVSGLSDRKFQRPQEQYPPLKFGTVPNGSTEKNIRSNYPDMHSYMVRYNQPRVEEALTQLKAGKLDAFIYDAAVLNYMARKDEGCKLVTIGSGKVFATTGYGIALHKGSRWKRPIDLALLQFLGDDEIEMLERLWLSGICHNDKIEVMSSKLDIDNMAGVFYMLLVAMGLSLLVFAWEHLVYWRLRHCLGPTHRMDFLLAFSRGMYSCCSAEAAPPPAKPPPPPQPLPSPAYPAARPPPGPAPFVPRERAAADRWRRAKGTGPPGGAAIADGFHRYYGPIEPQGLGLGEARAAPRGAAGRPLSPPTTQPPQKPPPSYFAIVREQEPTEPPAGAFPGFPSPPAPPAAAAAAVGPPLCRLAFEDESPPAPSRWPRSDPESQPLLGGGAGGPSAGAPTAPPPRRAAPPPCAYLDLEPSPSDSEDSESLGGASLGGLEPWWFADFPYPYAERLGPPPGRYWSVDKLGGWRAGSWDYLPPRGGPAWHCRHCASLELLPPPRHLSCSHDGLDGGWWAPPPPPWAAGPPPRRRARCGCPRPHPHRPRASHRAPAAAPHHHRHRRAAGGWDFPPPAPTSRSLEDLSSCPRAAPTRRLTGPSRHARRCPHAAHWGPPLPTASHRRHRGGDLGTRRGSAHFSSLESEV
The experiment can be described thus: Two-electrode voltage-clamp (TEVC) recordings in Xenopus laevis oocytes, GluN1/GluN2D. As for the experimental part: as §1, §2

The target in experiment [3] is T3, recombinant rat GluN1/GluN2B (Rattus norvegicus, UniProt P35439+Q00960).
T3 construct: expressed in transfected cells; host or cells: Xenopus laevis oocytes (Ecocyte) injected with in vitro transcribed cRNA
T3 sequence (Q00960 27-1482, other chains not shown): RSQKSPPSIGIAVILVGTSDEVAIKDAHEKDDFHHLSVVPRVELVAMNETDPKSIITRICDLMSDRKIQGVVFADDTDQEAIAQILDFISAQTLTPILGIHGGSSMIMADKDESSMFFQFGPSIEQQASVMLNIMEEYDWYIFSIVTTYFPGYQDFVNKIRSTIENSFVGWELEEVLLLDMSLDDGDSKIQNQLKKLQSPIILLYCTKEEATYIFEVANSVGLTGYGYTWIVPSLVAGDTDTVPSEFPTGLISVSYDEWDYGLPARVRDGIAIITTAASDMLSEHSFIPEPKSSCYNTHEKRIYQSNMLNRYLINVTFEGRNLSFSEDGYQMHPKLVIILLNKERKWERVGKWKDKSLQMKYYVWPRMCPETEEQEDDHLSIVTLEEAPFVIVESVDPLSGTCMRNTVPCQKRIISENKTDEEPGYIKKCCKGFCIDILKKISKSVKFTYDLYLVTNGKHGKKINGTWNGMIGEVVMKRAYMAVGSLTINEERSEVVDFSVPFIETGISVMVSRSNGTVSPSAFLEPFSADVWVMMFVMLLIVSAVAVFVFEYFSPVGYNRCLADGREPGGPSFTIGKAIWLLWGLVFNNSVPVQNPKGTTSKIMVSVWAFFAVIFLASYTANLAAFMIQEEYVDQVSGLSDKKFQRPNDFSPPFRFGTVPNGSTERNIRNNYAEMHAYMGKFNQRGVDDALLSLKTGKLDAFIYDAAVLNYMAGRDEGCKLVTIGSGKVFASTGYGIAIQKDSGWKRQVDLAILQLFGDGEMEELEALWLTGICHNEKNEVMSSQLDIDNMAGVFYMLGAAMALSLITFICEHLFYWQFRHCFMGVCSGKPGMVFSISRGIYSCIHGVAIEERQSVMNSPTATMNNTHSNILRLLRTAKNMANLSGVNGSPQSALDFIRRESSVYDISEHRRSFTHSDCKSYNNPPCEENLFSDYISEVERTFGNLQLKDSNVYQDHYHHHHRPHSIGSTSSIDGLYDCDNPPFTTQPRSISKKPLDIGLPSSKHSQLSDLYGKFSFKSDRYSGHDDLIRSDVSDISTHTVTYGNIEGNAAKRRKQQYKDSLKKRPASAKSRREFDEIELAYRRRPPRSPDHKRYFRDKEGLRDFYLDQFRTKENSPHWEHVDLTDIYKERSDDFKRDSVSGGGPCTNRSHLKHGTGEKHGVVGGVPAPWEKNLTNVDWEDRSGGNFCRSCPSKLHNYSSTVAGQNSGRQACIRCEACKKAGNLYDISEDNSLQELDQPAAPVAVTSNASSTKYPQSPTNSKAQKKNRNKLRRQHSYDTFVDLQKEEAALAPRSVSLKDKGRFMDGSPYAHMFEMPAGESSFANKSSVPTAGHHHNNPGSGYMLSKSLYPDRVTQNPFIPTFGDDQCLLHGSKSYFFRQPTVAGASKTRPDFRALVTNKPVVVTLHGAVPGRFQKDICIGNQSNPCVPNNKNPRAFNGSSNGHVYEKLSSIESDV
The experiment can be described thus: Two-electrode voltage-clamp (TEVC) recordings in Xenopus laevis oocytes, GluN1/GluN2B. On the procedure: as §1, §2

The target in experiment [4] is T4, recombinant rat GluN1/GluN2C (Rattus norvegicus, UniProt Q00961).
T4 construct: expressed in transfected cells; host or cells: Xenopus laevis oocytes (Ecocyte) injected with in vitro transcribed cRNA
T4 sequence (Q00961 20-1237, other chains not shown): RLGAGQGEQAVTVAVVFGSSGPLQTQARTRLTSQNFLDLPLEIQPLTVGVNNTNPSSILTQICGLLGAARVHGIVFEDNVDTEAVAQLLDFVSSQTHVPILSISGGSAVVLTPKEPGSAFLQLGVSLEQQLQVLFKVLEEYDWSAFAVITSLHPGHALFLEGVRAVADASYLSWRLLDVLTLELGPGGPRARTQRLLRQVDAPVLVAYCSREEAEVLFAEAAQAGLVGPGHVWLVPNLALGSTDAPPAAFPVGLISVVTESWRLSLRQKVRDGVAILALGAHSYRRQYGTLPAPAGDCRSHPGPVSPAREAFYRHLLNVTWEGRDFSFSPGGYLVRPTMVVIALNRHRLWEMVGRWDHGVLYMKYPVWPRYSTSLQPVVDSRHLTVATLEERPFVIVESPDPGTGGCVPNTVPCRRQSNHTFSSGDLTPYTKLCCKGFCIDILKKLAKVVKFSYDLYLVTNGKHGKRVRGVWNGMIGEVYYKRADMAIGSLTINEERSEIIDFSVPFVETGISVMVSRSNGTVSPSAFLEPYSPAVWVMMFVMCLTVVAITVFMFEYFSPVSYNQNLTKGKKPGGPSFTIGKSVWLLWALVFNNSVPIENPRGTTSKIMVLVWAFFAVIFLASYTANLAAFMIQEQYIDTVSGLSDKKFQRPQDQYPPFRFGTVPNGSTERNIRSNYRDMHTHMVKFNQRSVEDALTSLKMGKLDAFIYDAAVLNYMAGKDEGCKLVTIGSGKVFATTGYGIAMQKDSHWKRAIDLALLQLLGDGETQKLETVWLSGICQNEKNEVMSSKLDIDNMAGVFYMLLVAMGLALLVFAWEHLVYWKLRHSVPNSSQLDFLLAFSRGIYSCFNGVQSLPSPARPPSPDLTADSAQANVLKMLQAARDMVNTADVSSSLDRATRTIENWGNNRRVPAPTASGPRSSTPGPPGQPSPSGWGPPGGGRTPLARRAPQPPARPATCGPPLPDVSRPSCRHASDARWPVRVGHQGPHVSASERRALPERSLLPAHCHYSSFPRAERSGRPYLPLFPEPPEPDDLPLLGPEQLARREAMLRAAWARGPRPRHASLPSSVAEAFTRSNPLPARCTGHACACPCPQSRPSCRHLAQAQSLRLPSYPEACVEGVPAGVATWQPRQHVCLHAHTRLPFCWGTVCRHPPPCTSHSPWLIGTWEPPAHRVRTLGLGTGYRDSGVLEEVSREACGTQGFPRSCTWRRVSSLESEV
The experiment can be described thus: Two-electrode voltage-clamp (TEVC) recordings in Xenopus laevis oocytes, GluN1/GluN2C. The settings on record: for I30 μM/Icontrol (mean ± SEM, %) GluN2C: 30 μM compound, Tables 5-7. On the procedure:
as §1, §2

In experiment [5] the target is T5, recombinant rat GluN1/GluN2D (Rattus norvegicus, UniProt Q62645).
T5 construct: expressed in transfected cells; host or cells: Xenopus laevis oocytes (Ecocyte) injected with in vitro transcribed cRNA
T5 sequence (Q62645 28-1323, other chains not shown): as the sequence (Q62645 28-1323, other chains not shown) above
The experiment can be described thus: Two-electrode voltage-clamp (TEVC) recordings in Xenopus laevis oocytes, GluN1/GluN2D. The settings on record: for I30 μM/Icontrol (mean ± SEM, %) GluN2D: 30 μM compound, Tables 5-7. On the procedure: as §1, §2

In experiment [6] the target is T6, recombinant rat GluN1/GluN2B (Rattus norvegicus, UniProt Q00960).
T6 construct: expressed in transfected cells; host or cells: Xenopus laevis oocytes (Ecocyte) injected with in vitro transcribed cRNA
Put plainly: Two-electrode voltage-clamp (TEVC) recordings in Xenopus laevis oocytes, GluN1/GluN2B. The settings on record: for I30 μM/Icontrol (mean ± SEM, %) GluN2B: 30 μM compound, Tables 5-7. As for the experimental part:
as §1, §2

Setting [7] is: Tables 11-13, read-out: EC50 & Max Effect: 2C.
Where [8] appears, read: Tables 11-13, read-out: EC50 & Max Effect: 2C Max (%).
[9] abbreviates: Tables 11-13, read-out: EC50 & Max Effect: 2D.
Setting [10] is: Tables 11-13, read-out: EC50 & Max Effect: 2D Max (%).
Where [11] appears, read: maximum potentiation, response without modulator = 100%, read-out: GluN2C EC50 (μM)/Max %: Max %.
[12] abbreviates: maximum potentiation, response without modulator = 100%, read-out: GluN2D EC50 (μM)/Max %: Max %.
[13] abbreviates: maximum potentiation, response without modulator = 100%, read-out: GluN2B EC50 (μM)/Max %: Max %.
Setting [14] is: fitted when potentiation at 30 μM exceeded 120%, Tables 3, 5-7, read-out: EC50 (max.) (μM %) GluN2C: fitted EC50.
The mark [15] stands for this setting: percentage of the initial glutamate (100 μM) and glycine (30 μM) current, read-out: EC50 (max.) (μM %) GluN2C: fitted maximum response.
[16] abbreviates: fitted when potentiation at 30 μM exceeded 120%, Tables 3, 5-7, read-out: EC50 (max.) (μM %) GluN2B: fitted EC50.
The mark [17] stands for this setting: percentage of the initial glutamate (100 μM) and glycine (30 μM) current, read-out: EC50 (max.) (μM %) GluN2B: fitted maximum response.
[18] abbreviates: read-out: EC50 & Max Effect: 2C Max (%).
The mark [19] stands for this setting: read-out: EC50 & Max Effect: 2D Max (%).
Setting [20] is: untitled tables after drawing 25 and drawing 36, read-out: EC50 (μM) GluN2C.
[21] abbreviates: untitled tables after drawing 25 and drawing 36, read-out: EC50 (μM) GluN2D.

Read-outs that look alike come from different tables or passages of the source.

T1 sequence (Q00961 20-1237, other chains not shown): as the sequence (Q00961 20-1237, other chains not shown) above

As usually defined, the EC50 is the concentration giving half of the maximal effect. `CCOc1ccc(OCC2c3ccc(OC4CCCC4)cc3CCN2C(=O)c2cccc(F)c2)cc1` (stereo not drawn) [1180-112]: the EC50 came to 4.1 µM in experiment [1] (setting [7]) and 4.2 µM in experiment [2] (setting [9]). Besides, the Emax in experiment [1] (setting [8]) turned out to be 170%; in experiment [2] (setting [10]), 157%.
With `CCOc1ccc(OCC2c3ccc(OC(C)C)cc3CCN2C(=S)c2cccc(Br)c2)cc1` (stereo not drawn) [1180-156], the Emax is 161% in experiment [1] (setting [11]), 130% in experiment [2] (setting [12]) and 187% in experiment [3] (setting [13]).
On to `CCOc1ccc(OC[C@@H]2c3ccc(OC(C)C)cc3CCN2C(=O)c2cccc(F)c2)cc1` [(S)-(−)-1180-87], for which the EC50 in experiment [1] (setting [14]) was determined as 7.6 µM; in experiment [3] (setting [16]), 6.7 µM. In addition, the Emax came out at 132% in experiment [1] (setting [15]) and 206% in experiment [3] (setting [17]). Further, in experiment [4], the “I30 μM/Icontrol (mean ± SEM, %) GluN2C” value came out at 131%. Moreover, the “I30 μM/Icontrol (mean ± SEM, %) GluN2D” value in experiment [5] came out at 119%. In addition, the “I30 μM/Icontrol (mean ± SEM, %) GluN2B” value in experiment [6] is recorded as 195%.
`CCOc1ccc(OC[C@@H]2c3ccc(OC(C)C)cc3CCN2C(=O)c2ccc(Cl)c(Cl)c2)cc1` [(S)-(−)-1180-103]: the “I30 μM/Icontrol (mean ± SEM, %) GluN2C” value in experiment [4] is given as 114%. Also, the “GluN2C potentiation at 3 μM” value in experiment [4] (at 3 μM, footnote c of Table 7) is given as “exceeded 120%”. Besides, in experiment [5], the “I30 μM/Icontrol (mean ± SEM, %) GluN2D” value is 102%. Besides, the “GluN2D potentiation at 3 μM” value in experiment [5] (at 3 μM, footnote c of Table 7) was “exceeded 120%”. For the same molecule, the EC50 in experiment [3] (setting [16]) is 0.94 µM. The Emax in experiment [3] (setting [17]) is 163%. Further, the “I30 μM/Icontrol (mean ± SEM, %) GluN2B” value in experiment [6] is on record as 153%.
For `COc1ccc(OCC2c3ccc(OCc4ccccc4)cc3CCN2C(=O)c2cccc(Br)c2)cc1` (stereo not drawn) [drawing 33 R1=Br R2=H R3=H R4=OBn R5=H], the EC50 in experiment [1] (EC50 & Max Effect: 2C (μM)) came to 0.31 µM; in experiment [2] (EC50 & Max Effect: 2D (μM)), 0.27 µM. For the same molecule, the Emax is 257% in experiment [1] (setting [18]) and 219% in experiment [2] (setting [19]).
For the molecule `COc1ccc(OCC2c3ccc(OC)cc3CCN2C(=O)c2ccc(Cl)o2)cc1` (stereo not drawn) [1180-234], the figures for the EC50 in experiment [1] (setting [20]) and in experiment [2] (setting [21]) were 2.6 µM and 5.5 µM, respectively. For the same molecule, the “GluN2B response % at 30 µM” value in experiment [6] (at 30 µM) was determined as 107% at 30.
Take `CCOc1ccc(OCC2c3ccc(OC(C)C)cc3CCN2C(=O)c2ccc(Cl)c(Cl)c2)cc1` (stereo not drawn) [1180-103]: the EC50 in experiment [1] (setting [14]) came out at 0.65 µM; in experiment [3] (setting [16]), 1.4 µM. Also, the Emax in experiment [1] (setting [11]) is 137%; in experiment [1] (setting [15]) it was 139%; in experiment [3] (setting [13]), 130%; in experiment [3] (setting [17]), 134%. Besides, the “I30 μM/Icontrol (mean ± SEM, %) GluN2C” value in experiment [4] came out at 134%. Further, the “I30 μM/Icontrol (mean ± SEM, %) GluN2D” value in experiment [5] is recorded as 101%. Moreover, the “I30 μM/Icontrol (mean ± SEM, %) GluN2B” value in experiment [6] is recorded as 120%.
For the molecule `COc1ccc(OCC2c3ccc(OC)cc3CCN2C(=O)c2ccc(Cl)s2)cc1` (stereo not drawn) [1180-239], the EC50 is 0.9 µM in experiment [1] (setting [20]); 1 µM in experiment [2] (setting [21]); 1.6 µM in experiment [3] (untitled tables after drawing 25 and drawing 36, read-out: EC50 (μM) GluN2B).
In the case of `COc1ccc(OCC2c3cc(OC)c(OC)cc3CCN2C(=O)c2ccccc2)cc1` (stereo not drawn) [drawing 33 R1=H R2=H R3=H R4=OMe R5=OMe], the EC50 was found to be 12.3 µM in experiment [1] (setting [7]) and 11.4 µM in experiment [2] (setting [9]). Also, the Emax in experiment [1] (setting [8]) worked out at 450%; in experiment [2] (setting [10]) it was 156%.
The like results for `COc1ccc(OCC2c3ccc(SCc4ccccc4)cc3CCN2C(=O)c2cccc(Cl)c2)cc1` (stereo not drawn) [drawing 33 R1=Cl R2=H R3=H R4=SBn R5=H] were, in that order, 0.4 µM, 0.43 µM, 226% and 213%.
For `CCOc1ccc(OCC2c3ccc(OC(C)C)cc3CCN2C(=O)c2ccc(F)c(Cl)c2)cc1` (stereo not drawn) [1180-144], the Emax in experiment [1] (setting [11]) is 175%; in experiment [2] (setting [12]) it was 135%; in experiment [3] (setting [13]), 182%.
In the case of `COc1ccc(OC[C@@H]2c3cc(OC)c(OC)cc3CCN2C(=O)c2cccc(Cl)c2)cc1` [S-1390], the EC50 in experiment [1] (EC50 & Max Effect: 2C (μM)) is 6.1 µM. In addition, the Emax in experiment [1] (setting [18]) is 275%; in experiment [2] (setting [19]), 299%.
